{"source": "patent US20100298141A1", "about": "“SUBSTITUTED PYRIDINE N-OXIDE HERBICIDES” (E. I. DU PONT DE NEMOURS AND COMPANY, priority 2007, published 2010)", "test_in_all_cases": "Test F preemergence test", "settings_in_all_cases": "scale 0 to 100", "key": {"bermudagrass": {"tested_on": "bermudagrass", "format": "in vivo, Cynodon dactylon", "how_it_was_run": "(§1)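 Compounds in a non-phytotoxic solvent formulation with surfactant were applied before emergence after sowing, or, for sugarcane, also postemergence. Evaluation was visual, against controls, after 14 to 21 greenhouse days.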"}, "Surinam grass": {"tested_on": "Surinam grass", "format": "in vivo, Brachiaria decumbens", "how_it_was_run": "as §1"}, "goosegrass": {"tested_on": "goosegrass", "format": "in vivo, Eleusine indica", "how_it_was_run": "as §1"}, "johnsongrass": {"tested_on": "johnsongrass", "format": "in vivo, Sorghum halepense", "how_it_was_run": "as §1"}, "pitted morningglory": {"tested_on": "pitted morningglory", "format": "in vivo, Ipomoea lacunosa", "how_it_was_run": "as §1"}, "purple nutsedge": {"tested_on": "purple nutsedge", "format": "in vivo, Cyperus rotundus", "how_it_was_run": "as §1"}, "common ragweed": {"tested_on": "common ragweed", "format": "in vivo, Ambrosia elation", "how_it_was_run": "as §1"}, "guineagrass": {"tested_on": "guineagrass", "format": "in vivo, Panicum maximum", "how_it_was_run": "as §1"}, "southern sandbur": {"tested_on": "southern sandbur", "format": "in vivo, Cenchrus echinatus", "how_it_was_run": "as §1"}, "prickly sida": {"tested_on": "prickly sida", "format": "in vivo, Sida spinosa", "how_it_was_run": "as §1"}, "Italian ryegrass": {"tested_on": "Italian ryegrass", "format": "in vivo, Lolium multiflorum", "how_it_was_run": "as §1"}, "common purslane": {"tested_on": "common purslane", "format": "in vivo, Portulaca oleracea", "how_it_was_run": "as §1"}, "broadleaf signalgrass": {"tested_on": "broadleaf signalgrass", "format": "in vivo, Brachiaria platyphylla", "how_it_was_run": "as §1"}, "naked crabgrass": {"tested_on": "naked crabgrass", "format": "in vivo, Digitaria nuda", "how_it_was_run": "as §1"}, "itchgrass": {"tested_on": "itchgrass", "format": "in vivo, Rottboellia cochinchinensis", "how_it_was_run": "as §1"}, "field bindweed": {"tested_on": "field bindweed", "format": "in vivo, Convolvulus arvensis", "how_it_was_run": "as §1"}}}
{"compound": "CCn1nc(C(F)(F)F)c(C[S+]([O-])c2cc(C)cc[n+]2[O-])c1OCC(F)(F)F", "note": "(racemic) [Compound 66]", "values": [{"measurement": "Plant response rating, Bermudagrass", "setting": "bermudagrass; 16 g ai/ha, preemergence", "result": 40}, {"measurement": "Bermudagrass plant response rating", "setting": "bermudagrass; 62 g ai/ha, Preemergence", "result": 75}, {"measurement": "Bermudagrass plant response rating", "setting": "bermudagrass; 125 g ai/ha, preemergence", "result": 98}, {"measurement": "Plant response rating, Bermudagrass", "setting": "bermudagrass; Preemergence, 31 g ai/ha", "result": 60}, {"measurement": "Plant response rating, Surinam Grass", "setting": "Surinam grass; 16 g ai/ha, preemergence", "result": 0}, {"measurement": "Surinam Grass plant response rating", "setting": "Surinam grass; 125 g ai/ha, preemergence", "result": 100}, {"measurement": "Plant response rating, Surinam Grass", "setting": "Surinam grass; Preemergence, 62 g ai/ha", "result": 98}, {"measurement": "Plant response rating, Surinam Grass", "setting": "Surinam grass; Preemergence, 31 g ai/ha", "result": 90}, {"measurement": "Plant response rating, Goosegrass", "setting": "goosegrass; 16 g ai/ha, preemergence", "result": 40}, {"measurement": "Goosegrass plant response rating", "setting": "goosegrass; 62 g ai/ha, Preemergence", "result": 75}, {"measurement": "Goosegrass plant response rating", "setting": "goosegrass; 125 g ai/ha, preemergence", "result": 100}, {"measurement": "Plant response rating, Goosegrass", "setting": "goosegrass; Preemergence, 31 g ai/ha", "result": 60}, {"measurement": "Plant response rating, Johnsongrass", "setting": "johnsongrass; 16 g ai/ha, preemergence", "result": 35}, {"measurement": "Johnsongrass plant response rating", "setting": "johnsongrass; 62 g ai/ha, Preemergence", "result": 90}, {"measurement": "Johnsongrass plant response rating", "setting": "johnsongrass; 125 g ai/ha, preemergence", "result": 100}, {"measurement": "Plant response rating, Johnsongrass", "setting": "johnsongrass; Preemergence, 31 g ai/ha", "result": 65}, {"measurement": "Plant response rating, Morningglory", "setting": "pitted morningglory; 16 g ai/ha, preemergence", "result": 0}, {"measurement": "Morningglory plant response rating", "setting": "pitted morningglory; 62 g ai/ha, Preemergence", "result": 80}, {"measurement": "Morningglory plant response rating", "setting": "pitted morningglory; 125 g ai/ha, preemergence", "result": 100}, {"measurement": "Plant response rating, Morningglory", "setting": "pitted morningglory; Preemergence, 31 g ai/ha", "result": 65}, {"measurement": "Plant response rating, Purple Nutsedge", "setting": "purple nutsedge; 16 g ai/ha, preemergence", "result": 25}, {"measurement": "Purple Nutsedge plant response rating", "setting": "purple nutsedge; 62 g ai/ha, Preemergence", "result": 60}, {"measurement": "Purple Nutsedge plant response rating", "setting": "purple nutsedge; 125 g ai/ha, preemergence", "result": 100}, {"measurement": "Plant response rating, Purple Nutsedge", "setting": "purple nutsedge; Preemergence, 31 g ai/ha", "result": 40}, {"measurement": "Plant response rating, Ragweed", "setting": "common ragweed; 16 g ai/ha, preemergence", "result": 0}, {"measurement": "Ragweed plant response rating", "setting": "common ragweed; 125 g ai/ha, preemergence", "result": 80}, {"measurement": "Plant response rating, Ragweed", "setting": "common ragweed; Preemergence, 62 g ai/ha", "result": 70}, {"measurement": "Plant response rating, Ragweed", "setting": "common ragweed; Preemergence, 31 g ai/ha", "result": 70}, {"measurement": "Plant response rating, Guineagrass", "setting": "guineagrass; 16 g ai/ha, preemergence", "result": 20}, {"measurement": "Guineagrass plant response rating", "setting": "guineagrass; 62 g ai/ha, Preemergence", "result": 100}, {"measurement": "Guineagrass plant response rating", "setting": "guineagrass; 125 g ai/ha, preemergence", "result": 100}, {"measurement": "Plant response rating, Guineagrass", "setting": "guineagrass; Preemergence, 31 g ai/ha", "result": 80}, {"measurement": "Plant response rating, Sandbur", "setting": "southern sandbur; 16 g ai/ha, preemergence", "result": 15}, {"measurement": "Sandbur plant response rating", "setting": "southern sandbur; 125 g ai/ha, preemergence", "result": 100}, {"measurement": "Plant response rating, Sandbur", "setting": "southern sandbur; Preemergence, 62 g ai/ha", "result": 100}, {"measurement": "Plant response rating, Sandbur", "setting": "southern sandbur; Preemergence, 31 g ai/ha", "result": 70}, {"measurement": "Plant response rating, Prickly Sida", "setting": "prickly sida; 16 g ai/ha, preemergence", "result": 20}, {"measurement": "Prickly Sida plant response rating", "setting": "prickly sida; 62 g ai/ha, Preemergence", "result": 75}, {"measurement": "Prickly Sida plant response rating", "setting": "prickly sida; 125 g ai/ha, preemergence", "result": 98}, {"measurement": "Plant response rating, Prickly Sida", "setting": "prickly sida; Preemergence, 31 g ai/ha", "result": 20}, {"measurement": "Plant response rating, Ryegrass, Italian", "setting": "Italian ryegrass; 16 g ai/ha, preemergence", "result": 0}, {"measurement": "Ryegrass, Italian plant response rating", "setting": "Italian ryegrass; 125 g ai/ha, preemergence", "result": 70}, {"measurement": "Plant response rating, Ryegrass, Italian", "setting": "Italian ryegrass; Preemergence, 62 g ai/ha", "result": 60}, {"measurement": "Plant response rating, Ryegrass, Italian", "setting": "Italian ryegrass; Preemergence, 31 g ai/ha", "result": 50}, {"measurement": "Plant response rating, Purslane", "setting": "common purslane; 16 g ai/ha, preemergence", "result": 0}, {"measurement": "Purslane plant response rating", "setting": "common purslane; 62 g ai/ha, Preemergence", "result": 50}, {"measurement": "Purslane plant response rating", "setting": "common purslane; 125 g ai/ha, preemergence", "result": 60}, {"measurement": "Plant response rating, Purslane", "setting": "common purslane; Preemergence, 31 g ai/ha", "result": 0}, {"measurement": "Plant response rating, Signalgrass", "setting": "broadleaf signalgrass; 16 g ai/ha, preemergence", "result": 30}, {"measurement": "Signalgrass plant response rating", "setting": "broadleaf signalgrass; 125 g ai/ha, preemergence", "result": 95}, {"measurement": "Plant response rating, Signalgrass", "setting": "broadleaf signalgrass; Preemergence, 62 g ai/ha", "result": 65}, {"measurement": "Plant response rating, Signalgrass", "setting": "broadleaf signalgrass; Preemergence, 31 g ai/ha", "result": 30}, {"measurement": "Plant response rating, Crabgrass, Naked", "setting": "naked crabgrass; 16 g ai/ha, preemergence", "result": 0}, {"measurement": "Crabgrass, Naked plant response rating", "setting": "naked crabgrass; 62 g ai/ha, Preemergence", "result": 100}, {"measurement": "Crabgrass, Naked plant response rating", "setting": "naked crabgrass; 125 g ai/ha, preemergence", "result": 100}, {"measurement": "Plant response rating, Crabgrass, Naked", "setting": "naked crabgrass; Preemergence, 31 g ai/ha", "result": 25}, {"measurement": "Plant response rating, Itchgrass", "setting": "itchgrass; 16 g ai/ha, preemergence", "result": 0}, {"measurement": "Itchgrass plant response rating", "setting": "itchgrass; 62 g ai/ha, Preemergence", "result": 70}, {"measurement": "Itchgrass plant response rating", "setting": "itchgrass; 125 g ai/ha, preemergence", "result": 90}, {"measurement": "Plant response rating, Itchgrass", "setting": "itchgrass; Preemergence, 31 g ai/ha", "result": 50}, {"measurement": "Plant response rating, Field Bindweed", "setting": "field bindweed; 16 g ai/ha, preemergence", "result": 30}, {"measurement": "Field Bindweed plant response rating", "setting": "field bindweed; 62 g ai/ha, Preemergence", "result": 40}, {"measurement": "Field Bindweed plant response rating", "setting": "field bindweed; 125 g ai/ha, preemergence", "result": 75}, {"measurement": "Plant response rating, Field Bindweed", "setting": "field bindweed; Preemergence, 31 g ai/ha", "result": 40}]}
